Measured values: patent US12532884B2, “Fungicidal compositions” (SYNGENTA CROP PROTECTION AG, priority 2020, dated 2026)
Read-outs that look alike come from different tables or passages of the source.

Legend:
Phakopsora pachyrhizi = experiment: Example D: preventative activity against Phakopsora pachyrhizi on soybean (whole plants sprayed, leaf disks inoculated); format: in vivo
Text: (§1) Certain mixture compositions comprising a compound of formula (I) described above may show a synergistic effect. This occurs whenever the action of an active ingredient combination is greater than the sum of the actions of the individual components. The action to be expected E for a given active ingredient combination obeys the so-called COLBY formula and can be calculated as follows (COLBY, S. R. “Calculating synergistic and antagonistic responses of herbicide combination”. Weeds, Vol. 15, pages 20-22; 1967): • ppm=milligrams of active ingredient (=a.i.) per liter of spray mixture • X=% action by active ingredient A) using p ppm of active ingredient • Y=% action by active ingredient B) using q ppm of active ingredient.
(§2) According to COLBY, the expected (additive) action of active ingredients A)+B) using p+q ppm of active ingredient is:
(§3) If the action actually observed (O) is greater than the expected action (E), then the action of the combination is super-additive, i.e. there is a synergistic effect. In mathematical terms, synergism corresponds to a positive value for the difference of (O-E). In the case of purely complementary addition of activities (expected activity), said difference (O-E) is zero. A negative value of said difference (O-E) signals a loss of activity compared to the expected activity.
Whole soybean plants are treated with the recited active ingredients 4 weeks after planting. 1 day after spraying leaf disks are cut from the first trifoliate leaf. Five repetitions at each rate are conducted. The leaf disks are inoculated with Phakopsora pachyrhizi (Asian soybean rust) one day after treatment. Evaluation of the leaf disks is conducted 11 to 14 days after inoculation and the activity is derived from the relation of the treated vs untreated, infested check. (100=no disease, no damage to the leaf, 0=high infestation, leaf damaged heavily). The rates of the active ingredients used are given in the tables as g active ingredient (a.i.)/ha.

Septoria glycines = experiment: Example C3: mixtures against Septoria glycines (brown spot), liquid culture; format: cell-based; details: for inhibition at 0.1 ppm / inhibition at 0.3 ppm: Septoria glycines, read-out: Activity (%)
Text: This occurs whenever the action of an active ingredient combination is greater than the sum of the actions of the individual components. The action to be expected E for a given active ingredient combination obeys the so-called COLBY formula and can be calculated as follows (COLBY, S. R. “Calculating synergistic and antagonistic responses of herbicide combination”. Weeds, Vol. 15, pages 20-22; 1967): • ppm=milligrams of active ingredient (=a.i.) per liter of spray mixture • X=% action by active ingredient A) using p ppm of active ingredient • Y=% action by active ingredient B) using q ppm of active ingredient.
as §2, §3
Mycelia fragments or conidia suspensions of a fungus prepared either freshly from liquid cultures of the fungus or from cryogenic storage, are directly mixed into nutrient broth. DMSO solutions of the test compound (max. 10 mg/mL) are diluted with 0.025% Tween20 by a factor of 50 and 10 μl of this solution is pipetted into a microtiter plate (96-well format). […] The test plates are incubated in the dark at 24° C. and 96% relative humidity. The inhibition of fungal growth is determined photometrically after 2 to 7 days, depending on the pathosystem, and percent antifungal activity relative to the untreated check is calculated.
Conidia of the fungus harvested from a fresh culture grown on artificial media, were directly mixed into nutrient broth (PDB potato dextrose broth). A DMSO solution of the test compounds was placed into a microtiter plate (96-well format) and the nutrient broth containing the fungal spores was added to it.
Fungicidal activity was evaluated on a 100-0 scale (100=no disease growth; 0=well completely covered by mycelium).

Septoria tritici = experiment: Example C2: mixtures against Septoria tritici (leaf blotch), liquid culture; format: cell-based; details: for inhibition at 0.3 ppm: read-out: Activity (%)
Text: as §1, §2, §3
Mycelia fragments or conidia suspensions of a fungus prepared either freshly from liquid cultures of the fungus or from cryogenic storage, are directly mixed into nutrient broth. DMSO solutions of the test compound (max. 10 mg/mL) are diluted with 0.025% Tween20 by a factor of 50 and 10 μl of this solution is pipetted into a microtiter plate (96-well format). The nutrient broth containing the fungal spores/mycelia fragments is then added to give an end concentration of the tested compound. The test plates are incubated in the dark at 24° C. and 96% relative humidity. The inhibition of fungal growth is determined photometrically after 2 to 7 days, depending on the pathosystem, and percent antifungal activity relative to the untreated check is calculated.
Conidia of the fungus from cryogenic storage were directly mixed into nutrient broth (PDB potato dextrose broth). A DMSO solution of the test compounds was placed into a microtiter plate (96-well format) and the nutrient broth containing the fungal spores was added to it.
The following mixture compositions at the reported concentration (in ppm) in tables C2-3 to C2-5 gave the following disease control in this test Septoria tritici (leaf blotch). Fungicidal activity was evaluated on a 100-0 scale (100=no disease growth; 0=well completely covered by mycelium).

[1] = single active ingredient, 4.5 g/ha
[2] = single component, 0.1 ppm, 100-0 scale (100=no disease growth)
[3] = single component, 0.3 ppm, 100-0 scale (100=no disease growth)
[4] = Phakopsora pachyrhizi, foliar, applied alone, 9 g/ha, read-out: Observed Activity (% of untreated)
[5] = Phakopsora pachyrhizi, foliar, applied alone, 18 g/ha, read-out: Observed Activity (% of untreated)
[6] = Phakopsora pachyrhizi, foliar, single active ingredient, 9 g/ha, read-out: Observed Activity (%)
[7] = Phakopsora pachyrhizi, foliar, single active ingredient, 18 g/ha, read-out: Observed Activity (%)
[8] = single active ingredient, 9 g/ha
[9] = single active ingredient, 18 g/ha
[10] = Phakopsora pachyrhizi, foliar, applied alone, 22.5 g/ha, read-out: Observed Activity (% of untreated)
[11] = Phakopsora pachyrhizi, foliar, applied alone, 45 g/ha, read-out: Observed Activity (% of untreated)
[12] = Phakopsora pachyrhizi, foliar, applied alone, read-out: Observed Activity (% of untreated)
[13] = Phakopsora pachyrhizi, foliar, single active ingredient, soybean, preventative, 100=no disease, read-out: Observed Activity (%)
[14] = Phakopsora pachyrhizi, foliar, applied alone, 4.5 g/ha, read-out: Observed Activity (% of untreated)
[15] = Phakopsora pachyrhizi, foliar, single active ingredient, 4.5 g/ha, read-out: Observed Activity (%)
[16] = Zymoseptoria tritici, single component, 0.3 ppm, 100-0 scale
[17] = single component, 0.3 ppm, 100-0 scale

Cn1cc(C(=O)Nc2cccc3c2[C@@H]2CC[C@H]3C2=C(Cl)Cl)c(C(F)F)n1 (racemic) [Benzovindiflupyr]
Observed Activity (% of untreated) (Phakopsora pachyrhizi; applied alone, 2.25 g/ha): 92% | Observed Activity (% of untreated) (Phakopsora pachyrhizi; applied alone, 4.5 g/ha): 94% | Observed Activity (%) (Phakopsora pachyrhizi; single active ingredient, 2.25 g/ha): 92% | Observed Activity (%) (Phakopsora pachyrhizi; [1]): 94%

CC(C)(C)[C@@H](O)[C@@H](Cc1ccc(Cl)cc1)n1cncn1 (racemic) [paclobutrazol]
inhibition at 0.1 ppm (Septoria glycines; [2]): 0% | inhibition at 0.3 ppm (Septoria glycines; [3]): 50%

CNC(=O)C(=N/OC)/C(C)=C\COc1ccn(-c2ccc(Cl)cc2Cl)n1 [(Z,2E)-5-[1-(2,4-dichlorophenyl)pyrazol-3-yl]oxy-2-methoxyimino-N,3-dimethyl-pent-3-enamide]
inhibition at 9 g/ha (Phakopsora pachyrhizi; [4]): 2% | inhibition at 18 g/ha (Phakopsora pachyrhizi; [5]): 3% | inhibition at 9 g/ha (Phakopsora pachyrhizi; [6]): 2% | inhibition at 18 g/ha (Phakopsora pachyrhizi; [7]): 3%

CO/C=C(/C(=O)OC)c1ccccc1Oc1cc(Oc2ccccc2C#N)ncn1 [Azoxystrobin]
Observed Activity (% of untreated) (Phakopsora pachyrhizi; applied alone, 2.25 g/ha): 0% | Observed Activity (% of untreated) (Phakopsora pachyrhizi; applied alone, 4.5 g/ha): 15% | Observed Activity (% of untreated) (Phakopsora pachyrhizi; applied alone, 9 g/ha): 23% | Observed Activity (% of untreated) (Phakopsora pachyrhizi; applied alone, 18 g/ha): 9% | Observed Activity (%) (Phakopsora pachyrhizi; [1]): 0% | Observed Activity (%) (Phakopsora pachyrhizi; [8]): 2% | Observed Activity (%) (Phakopsora pachyrhizi; [9]): 26%

CC(C1CC1)C(O)(Cn1cncn1)c1ccc(Cl)cc1 (centres unmarked) [Cyproconazole]
inhibition at 22.5 g/ha (Phakopsora pachyrhizi; [10]): 51% | inhibition at 45 g/ha (Phakopsora pachyrhizi; [11]): 52%

CC1COC(Cn2cncn2)(c2ccc(Oc3ccc(Cl)cc3)cc2Cl)O1 (centres unmarked) [Difenoconazole]
inhibition at 22.5 g/ha (Phakopsora pachyrhizi; [10]): 0% | inhibition at 45 g/ha (Phakopsora pachyrhizi; [11]): 0%

CC(Cc1ccc(C(C)(C)C)cc1)CN1CCCCC1 (centres unmarked) [Fenpropidin, reference compound]
inhibition at 0.1 ppm (Septoria glycines; [2]): 0% | inhibition at 0.3 ppm (Septoria glycines; [3]): 50% | inhibition at 225 g/ha (Phakopsora pachyrhizi; [12]): 64% | inhibition at 450 g/ha (Phakopsora pachyrhizi; [12]): 61% | inhibition at 900 g/ha (Phakopsora pachyrhizi; [12]): 82% | inhibition at 225 g/ha (Phakopsora pachyrhizi; [13]): 64% | inhibition at 450 g/ha (Phakopsora pachyrhizi; [13]): 61% | inhibition at 900 g/ha (Phakopsora pachyrhizi; [13]): 82%

CC(Cc1ccc(C(C)(C)C)cc1)CN1C[C@@H](C)O[C@@H](C)C1 (some centres unmarked) [Fenpropimorph, reference compound]
inhibition at 0.1 ppm (Septoria glycines; [2]): 50% | inhibition at 0.3 ppm (Septoria glycines; [3]): 70% | inhibition at 225 g/ha (Phakopsora pachyrhizi; [12]): 8% | inhibition at 450 g/ha (Phakopsora pachyrhizi; [12]): 43% | inhibition at 900 g/ha (Phakopsora pachyrhizi; [12]): 76% | inhibition at 225 g/ha (Phakopsora pachyrhizi; [13]): 8% | inhibition at 450 g/ha (Phakopsora pachyrhizi; [13]): 43% | inhibition at 900 g/ha (Phakopsora pachyrhizi; [13]): 76%

Cc1cccc(-n2nnn(C)c2=O)c1COc1ccn(-c2ccc(Cl)cc2)n1 [Metyltetraprole]
Observed Activity (% of untreated) (Phakopsora pachyrhizi; applied alone, 9 g/ha): 2% | Observed Activity (% of untreated) (Phakopsora pachyrhizi; applied alone, 18 g/ha): 2% | Observed Activity (%) (Phakopsora pachyrhizi; [8]): 2% | Observed Activity (%) (Phakopsora pachyrhizi; [9]): 2%

OC(Cc1ccccc1Cl)(Cn1nc[nH]c1=S)C1(Cl)CC1 (centres unmarked) [Prothioconazole]
inhibition at 22.5 g/ha (Phakopsora pachyrhizi; [10]): 74% | inhibition at 45 g/ha (Phakopsora pachyrhizi; [11]): 76%

CON(C(=O)c1cn(C)nc1C(F)F)C(C)Cc1c(Cl)cc(Cl)cc1Cl (centres unmarked) [Pydiflumetofen]
Observed Activity (% of untreated) (Phakopsora pachyrhizi; applied alone, 22.5 g/ha): 0% | Observed Activity (% of untreated) (Phakopsora pachyrhizi; applied alone, 45 g/ha): 4%

COC(=O)N(OC)c1ccccc1COc1ccn(-c2ccc(Cl)cc2)n1 [Pyraclostrobin]
inhibition at 4.5 g/ha (Phakopsora pachyrhizi; [14]): 1% | inhibition at 9 g/ha (Phakopsora pachyrhizi; [4]): 1% | inhibition at 18 g/ha (Phakopsora pachyrhizi; [5]): 0% | inhibition at 4.5 g/ha (Phakopsora pachyrhizi; [15]): 1% | inhibition at 9 g/ha (Phakopsora pachyrhizi; [6]): 1% | inhibition at 18 g/ha (Phakopsora pachyrhizi; [7]): 0%

CON=C(C(=O)OC)c1ccccc1CON=C(C)c1cccc(C(F)(F)F)c1 [Trifloxystrobin]
inhibition at 2.25 g/ha (Phakopsora pachyrhizi; Phakopsora pachyrhizi, foliar, applied alone, 2.25 g/ha, read-out: Observed Activity (% of untreated)): 0% | inhibition at 4.5 g/ha (Phakopsora pachyrhizi; [14]): 3% | inhibition at 9 g/ha (Phakopsora pachyrhizi; [4]): 0% | inhibition at 18 g/ha (Phakopsora pachyrhizi; [5]): 19% | inhibition at 4.5 g/ha (Phakopsora pachyrhizi; [15]): 0% | inhibition at 9 g/ha (Phakopsora pachyrhizi; [6]): 1% | inhibition at 18 g/ha (Phakopsora pachyrhizi; [7]): 33%

CC(C1CC1)C(O)(Cn1cncn1)c1ccc(Cl)cc1 (centres unmarked) [cyproconazole]
inhibition at 0.3 ppm (Septoria tritici; [16]): 50% | inhibition at 0.1 ppm (Septoria glycines; [2]): 20%

N#Cc1c[nH]cc1-c1cccc2c1OC(F)(F)O2 [fludioxonil]
inhibition at 0.3 ppm (Septoria tritici; Zymoseptoria tritici): 20% | inhibition at 0.1 ppm (Septoria glycines): 0% | inhibition at 0.3 ppm (Septoria glycines): 20%

O=C(NCCc1ncc(C(F)(F)F)cc1Cl)c1ccccc1C(F)(F)F [fluopyram]
inhibition at 0.1 ppm (Septoria glycines; [2]): 0% | inhibition at 0.3 ppm (Septoria glycines; [3]): 50%

OC(Cn1cncn1)(c1ccc(F)cc1)c1ccccc1F (centres unmarked) [flutriafol]
inhibition at 0.1 ppm (Septoria glycines; [2]): 20% | inhibition at 0.3 ppm (Septoria glycines; [3]): 70%

Cn1cc(C(=O)Nc2ccccc2-c2cc(F)c(F)c(F)c2)c(C(F)F)n1 [fluxapyroxad]
Activity (%) (Septoria glycines; single component, 0.1 ppm): 50% | Activity (%) (Septoria glycines; [2]): 50% | Activity (%) (Septoria glycines; single component, 0.3 ppm): 70% | Activity (%) (Septoria glycines; [3]): 70%

CCCCC(O)(Cn1cncn1)c1ccc(Cl)cc1Cl (centres unmarked) [hexaconazole]
inhibition at 0.1 ppm (Septoria tritici; Zymoseptoria tritici, single component, 0.1 ppm, 100-0 scale (100=no disease growth)): 70%

CC(C)C1C2CCC1c1c(NC(=O)c3cn(C)nc3C(F)F)cccc12 (centres unmarked) [isopyrazam]
Activity (%) (Septoria tritici; [2]): 50% | Activity (%) (Septoria tritici; [17]): 70% | Activity (%) (Septoria glycines; single component, 0.1 ppm): 70% | Activity (%) (Septoria glycines; [2]): 70% | Activity (%) (Septoria glycines; single component, 0.3 ppm): 70% | Activity (%) (Septoria glycines; [3]): 70%

CCCC1COC(Cn2cncn2)(c2ccc(Cl)cc2Cl)O1 (centres unmarked) [propiconazole]
inhibition at 0.3 ppm (Septoria tritici; [16]): 70%

CC1(C)N=C(c2cnc3ccccc3c2)c2ccccc2C1(F)F [quinofumelin]
Activity (%) (Septoria tritici; [17]): 0%

S1SSSSSSS1 [sulphur]
inhibition at 0.3 ppm (Septoria glycines; [3]): 0%

CC(C)(C)C(O)(CCc1ccc(Cl)cc1)Cn1cncn1 (centres unmarked) [tebuconazole]
inhibition at 0.1 ppm (Septoria glycines; [2]): 70%

CCOC(=O)C1CC(=O)C(=C(O)C2CC2)C(=O)C1 (centres unmarked) [trinexapac-ethyl]
inhibition at 0.3 ppm (Septoria glycines; [3]): 0%
